biological target: T1, human DGAT1 (Homo sapiens, UniProt O75907); assay: DGAT1 enzyme inhibition assay (Sf9 membrane preparation, LC/MS/MS readout); type: biochemical; settings: membrane preparation from Sf9 cells overexpressing human (His)6DGAT1; 10-point, 3-fold dose response; read-out: IC50 (inhibitory activity to human DGAT1)
T1 construct: (His)6; made in house; host or cells: Sf9 insect cells (membrane preparation)
T1 sequence (O75907 1-488): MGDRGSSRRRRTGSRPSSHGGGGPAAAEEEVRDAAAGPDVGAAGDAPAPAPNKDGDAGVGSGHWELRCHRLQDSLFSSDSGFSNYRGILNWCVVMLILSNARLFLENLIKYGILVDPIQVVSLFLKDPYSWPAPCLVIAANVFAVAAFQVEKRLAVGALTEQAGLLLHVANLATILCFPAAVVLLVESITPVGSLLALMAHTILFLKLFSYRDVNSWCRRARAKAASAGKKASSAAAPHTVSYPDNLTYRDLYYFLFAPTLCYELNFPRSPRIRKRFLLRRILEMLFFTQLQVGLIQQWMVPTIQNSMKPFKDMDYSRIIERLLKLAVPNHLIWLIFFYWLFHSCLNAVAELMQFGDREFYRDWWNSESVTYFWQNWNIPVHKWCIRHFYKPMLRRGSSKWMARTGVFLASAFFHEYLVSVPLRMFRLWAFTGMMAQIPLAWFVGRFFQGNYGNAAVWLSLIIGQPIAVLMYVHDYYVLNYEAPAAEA
Method: The enzyme preparation used in this assay is a membrane preparation from Sf9 cells overexpressing human (His)6DGAT1. During all steps samples were chilled to 4° C. Sf9 cells expressing human (His)6DGAT1 were thawed at RT and re-suspended at a 10:1 ratio (mL buffer/g of cells) in 50 mM HEPES, 1× Complete Protease Inhibitor, pH 7.5. The re-suspended pellet was homogenized for 1 min using a Brinkman PT 10/35 homogenizer with a 20 mm generator. Cells were lysed using Avestin Emulsiflex (chilled to 4° C.) at 10000-15000 psi. Lysate was centrifuged at 100,000×g for 1 h at 4° C. Supernatant was removed and pellets were re-suspended in 50 mM HEPES, 1× Complete Protease Inhibitor, pH 7.5 at ⅙ the volume of supernatant. Re-suspended pellets were pooled and homogenized with 10 strokes of a Glas-Col motor driven teflon pestle on setting 70. The protein concentration of the membrane preparation was quantified using BCA protein assay with 1% SDS. The membrane preparation was aliquoted, frozen on dry ice, and stored at −80° C.
For 50 mL, 25 mL of 0.2 M HEPES stock buffer, 0.5 mL of 1 M MgCl2 (5 mM final concentration), and 24.5 mL of milli-Q H20 are added to the 55 mL Wheaton Potter-Elvehjem homogenizer. Enzyme preparation (0.1 mL) is added to buffer and the mixture is homogenized with 5 strokes on ice using the Glas-Col variable speed homogenizer system on setting 70.
For 50 mL, 0.5 mL 10 mM diolein is added to 9.5 mL of EtOH in a 50 mL Falcon screw cap conical centrifuge tube. Five mL of 10 mM sodium acetate pH 4.5 is added followed by 0.5 mL of 10 mM oleoyl-CoA. Finally, the remaining 4.5 mL of 10 mM sodium acetate pH 4.5 is added followed by 30 mL of milli-Q H2O. The solution should be gently agitated by hand to induce mixing. The final concentrations of EtOH and sodium acetate are 20% and 2 mM, respectively.
Dry compounds are dissolved in the appropriate volume of DMSO to a final concentration of 10 mM. A 10-point, 3-fold dose response is used to evaluate compound potency. All dilutions are performed in DMSO in a Greiner 384-well microplate. • 1. 2 μL of compound in DMSO is added to the appropriate wells. 2 μL of DMSO is added to 100% activity and 100% inhibition controls. • 2. 25 μL of enzyme mix is added to all wells and plate(s) are incubated for 10 min at RT. • 3. 10 μL of 20% acetic acid quench is added to 100% inhibition control wells. Plate(s) are vortexed using Troemner multi-tube vortexer (setting 7 for 10 sec). • 4. 25 μL of substrate mix is added to all wells. Plate(s) are vortexed using Troemner multi-tube vortexer (setting 7 for 10 sec). Plate(s) are incubated for 30 min at RT. • 5. 10 μL of 20% acetic acid quench is added to all wells. Plate(s) are vortexed using Troemner multi-tube vortexer (setting 7 for 10 sec). • 6. 50 μL of 1-butanol w/ glyceryl tripalmitoleate internal standard is added to all wells. • 7. Plate(s) are sealed with super pierce strong plate sealer using the thermo-sealer.
8. Plate(s) are vortexed using Troemner multi-tube vortexer (setting 10 for 5 min). • 9. Plate(s) are centrifuged at 162×g (1000 rpm for GH-3.8 rotor) for 5 min using Beckman GS-6R tabletop centrifuge.
Samples were analyzed by LC/MS/MS using a Waters 1525μ LC and Quattro Micro API MS. Where indicated, tripalmitolein was used as an internal standard to control for instrument variation.
Data is converted to % inhibition prior to curve fitting using the following equation: […]

Row | IC50 [nM] | Structure (SMILES)
1 | 2300 | Cc1cncc(-c2nnc(-c3ccc4nc(-c5c(Cl)cccc5Cl)[nH]c4c3)o2)c1 [Example 1-15, 2-(2,6-Dichloro-phenyl)-6-[5-(5-methyl-pyridin-3-yl)-[1,3,4]oxadiazol-2-yl]-1H-benzoimidazole]
2 | > 10000 | Clc1cccc(Cl)c1-c1nc2ccc(-c3nc(-c4ccccc4)c(-c4ccccc4)o3)cc2[nH]1 [Example 1-24, 2-(2,6-Dichloro-phenyl)-6-(4,5-diphenyl-oxazol-2-yl)-1H -benzoimidazole]
3 | 4700 | Cc1nc(-c2ccc3nc(-c4c(Cl)cccc4Cl)[nH]c3c2)oc1-c1ccc(Cl)cc1 [Example 1-25, 6-[5-(4-Chlorophenyl)-4-methyl-oxazol-2-yl]-2-(2,6-dichlorophenyl)-1H-benzoimidazole]
4 | 400 | Clc1cccc(Cl)c1-c1nc2ccc(-c3nnc(Nc4cccnc4)o3)cc2[nH]1 [Example 1-29, {5-[2-(2,6-Dichloro-phenyl)-3H-benzoimidazol-5-yl]-[1,3,4]oxadiazol-2-yl}-pyridin-3-yl-amine]
5 | > 10000 | Clc1cccc(Cl)c1-c1nc2ccc(-c3nnc(N4CCCC4)o3)cc2[nH]1 [Example 1-34, 2-(2,6-Dichloro-phenyl)-6-(5-pyrrolidin-1-yl-[1,3,4]oxadiazol-2-yl)-1H-benzoimidazole]
6 | 54 | Cc1ccc(Nc2nnc(-c3ccc4nc(-c5c(Cl)cccc5Cl)[nH]c4c3)o2)cn1 [Example 1-38, {5-[2-(2,6-Dichloro-phenyl)-3H-benzoimidazol-5-yl]-[1,3,4]oxadiazol-2-yl}-(6-methyl-pyridin-3-yl)-amine]
7 | 80 | Clc1cc(Nc2nnc(-c3ccc4nc(-c5c(Cl)cccc5Cl)[nH]c4c3)o2)ccn1 [Example 1-43, (2-Chloro-pyridin-4-yl)-{5-[2-(2,6-dichloro-phenyl)-3H-benzoimidazol-5-yl]-[1,3,4]oxadiazol-2-yl}-amine]
8 | 310 | N#Cc1cccc(Nc2nnc(-c3ccc4nc(-c5c(Cl)cccc5Cl)[nH]c4c3)o2)c1 [Example 1-51, 3-{5-[2-(2,6-Dichloro-phenyl)-3H-benzoimidazol-5-yl]-[1,3,4]oxadiazol-2-ylamino}-benzonitrile]
9 | 9 | Cc1cc(CCC(=O)O)cc(C)c1-c1nc2ccc(-c3nnc(Nc4cccc(Cl)c4)o3)cc2[nH]1 [Example 1-59, 3-(4-{6-[5-(3-Chlorophenylamino)-[1,3,4]oxadiazol-2-yl]-1H-benzoimidazol-2-yl}-3,5-dimethylphenyl)-propionic acid]
10 | 15 | COc1ccc(-c2nnc(-c3ccc4nc(-c5c(C)cc(CC(C)(C)C(=O)O)cc5C)[nH]c4c3)o2)cc1 [Example 1-62, 3-(4-{5-[5-(4-Methoxy-phenyl)-[1,3,4]oxadiazol-2-yl]-1H-benzoimidazol-2-yl}-3,5-dimethyl-phenyl)-2,2-dimethyl-propionic acid]

From US8217065B2, “Organic compounds” (Novartis AG, priority 2007, dated 2012)
